Several values for one entry are separate records, joined by “and”; a condition that tells them apart may be missing. Identical values can stand only once. Like-named read-outs stand apart in the source and are kept apart here. No end group written: not given here.
Tests used:
tryptase [1] = target: T1, tryptase (Homo sapiens, UniProt Q15661); experiment: Inhibition of the Ca2+ response of myocytes to HMC-1 mast cell filtrate; assay type: cell-based; parameters: HMC-1 human mast cells; endogenous in cells; host or cells: HMC-1 human mast cells, filtrate after degranulation with substance P
T1 sequence (Q15661 31-275): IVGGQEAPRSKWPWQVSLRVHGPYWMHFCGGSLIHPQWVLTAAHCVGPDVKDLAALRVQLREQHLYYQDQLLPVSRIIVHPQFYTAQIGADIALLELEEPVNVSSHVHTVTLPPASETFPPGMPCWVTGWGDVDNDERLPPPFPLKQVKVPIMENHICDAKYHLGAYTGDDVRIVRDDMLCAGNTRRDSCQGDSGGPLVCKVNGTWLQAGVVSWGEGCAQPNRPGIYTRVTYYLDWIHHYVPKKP
Method: (§1) Degranulation of HMC-1 cells (human mast cell line) with substance P was induced, and a filtrate for Ca^2+ responses in myocytes was assessed, to determine if mast cells release proteases that cleave and activate PAR-2.
(§2) Myocytes were incubated in physiological salt solution (PSS) with 2.5 μM Fura-2/AM for 20 min at 37° C. Fluorescence was measured in individual cells using an ICCD video camera (Stanford Photonics, Stanford, Calif.) and a video microscopy acquisition program (Axon Industries, Foster City, Calif.). Fluorescence was measured at 340 and 380 nm excitation and 510 nm emission. The ratio of the fluorescence at the two excitation wavelengths, which is proportional to the [Ca^2+ ]i, was calculated. Fresh cells were studied with each agonist and a minimum of 10 cells analyzed in 2-4 experiments on different days.
HMC-1 human mast cells (300 μl of 7×10^6 /ml in PSS containing 25 μg/ml heparin) were incubated with 100 μM substance P for 5 min at room temperature to induce degranulation. The suspension was filtered and assayed for stimulation of Ca^2+ mobilization.

tryptase [2] = target: T1, tryptase; experiment: Ca2+ response of myocytes to tryptase pre-incubated with inhibitor; assay type: cell-based
Method: as §2

tryptase [3] = target: T1, tryptase; conditions: cited from earlier work
[4] = tested on: strips of rat proximal colon
[5] = tested on: mice with cecal manipulation; experiment: GI transit in mice with surgically induced ileus; assay type: in vivo; conditions: 1 mg/kg orally 30 minutes prior to anesthesia
Method: GI transit was measured in fed mice by oral gavage pf 0.3 ml carmine red in methylcellulose. Whole GI transit time was defined as the appearance of the first red fecal pellet. Upper GI transit time was defined as the appearance as the percentage of the distance traveled along the small intestine by the marker in 30 minutes. Cecal manipulation for 5 minutes or skin incision alone was performed under halothane anesthesia and the marker administered 1 hour after surgery.
Skin incision alone had little effect on transit time.

PAR-2 = target: T2, PAR-2 (Rattus norvegicus, UniProt Q63645); experiment: Ca2+ mobilization by colonic myocytes (Fura-2); assay type: cell-based; conditions: for EC50: read-out: EC50, increase in [Ca2+]i
T2 construct: endogenous in cells; host or cells: cultured colonic myocytes (rat)
T2 sequence (Q63645 26-397): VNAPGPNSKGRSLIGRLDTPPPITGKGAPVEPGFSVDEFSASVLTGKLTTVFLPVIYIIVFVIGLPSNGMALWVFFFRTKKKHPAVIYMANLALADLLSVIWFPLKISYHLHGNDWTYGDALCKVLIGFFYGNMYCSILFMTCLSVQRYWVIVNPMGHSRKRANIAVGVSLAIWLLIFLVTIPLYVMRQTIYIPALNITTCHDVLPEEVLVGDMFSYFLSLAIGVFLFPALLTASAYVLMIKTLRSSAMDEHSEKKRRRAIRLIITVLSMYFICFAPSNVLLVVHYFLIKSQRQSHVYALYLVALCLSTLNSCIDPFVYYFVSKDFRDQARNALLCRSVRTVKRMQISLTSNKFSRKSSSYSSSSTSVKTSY
Method: Ac. Ca^2+ Mobilization by Colonic Myocytes. The activation of PAR-2 in myocytes was assessed by measuring Ca^2+ mobilization, as described in Example 3.
as §1, §2

trypsin = experiment: Ca2+ response of myocytes to trypsin pre-incubated with inhibitor; assay type: cell-based; conditions: 1 nM trypsin; 10 mg/ml SBTI, 60 min at 37° C. before assay
Method: Ac. Ca^2+ Mobilization by Colonic Myocytes. The activation of PAR-2 in myocytes was assessed by measuring Ca^2+ mobilization, as described in Example 3. Trypsin and AP (SLIGRL-NH2) stimulated a prompt increase in [Ca^2+ ]i.
as §2

N=C(N)c1ccc2nc(Cc3nc4ccc(C(=N)N)cc4[nH]3)[nH]c2c1 [BABIM, bis(5-amidino-2-benzimidazolyl) methane]
inhibition of the [Ca2+]i response to HMC-1 mast cell filtrate (tryptase [1]): 46.5±1% and ~ 50%
Ca2+ response to tryptase after pre-incubation with inhibitor (tryptase [2]): no Ca^2+ response

CC(C)(C)c1ccc(OC(=O)[C@H]2CC[C@H](CNC(=N)N)CC2)cc1 [GMCHA-OPhBut, trans-4-guanidinomethylcyclohexane-carboxylic acid 4-tert butylphenyl ester]
concentrations that inhibit tryptase activity (tryptase [3]): 1 to 100 µM

COC(=O)[C@@H](N)CCCNC(=N)N[N+](=O)[O-] [L-NAME, L-N^G -nitro arginine methyl ester]
effect of pre-incubation on the effects of trypsin and AP ([4]; 100 μM L-NAME for 15 min): did not prevent

CCCCC[C@H](O)/C=C/[C@H]1[C@H](O)CC(=O)[C@@H]1C/C=C\CCCC(=O)O [PGE2]
effect on colonic motility ([4]; 30 nM PGE2): inhibited colonic motility

COc1ccc2c(c1)c(CC(=O)O)c(C)n2C(=O)c1ccc(Cl)cc1 [indomethacin]
effect of pre-incubation on the response to trypsin and AP ([4]; 1 μM indomethacin for 15 min): had no effect

CN1CCC(=C2c3ccccc3CC(=O)c3sccc32)CC1 [ketotifen]
effect on inhibition of GI transit produced by abdominal surgery ([5]; cecal manipulation): partially reversed
effect on transit time in unoperated animals ([5]; unoperated): little effect

CC(=O)N[C@@H](CC(C)C)C(=O)N[C@@H](CC(C)C)C(=O)N[C@H](C=O)CCCNC(=N)N [leupeptin]
inhibition of the [Ca2+]i response to HMC-1 mast cell filtrate (tryptase [1]; myocytes, filtrate of HMC-1 cells degranulated with substance P): 46.5±4%
Ca2+ response to tryptase after pre-incubation with inhibitor (tryptase [2]; 40 nM tryptase, 1 μM inhibitor, 5 min at room temperature before assay): no Ca^2+ response

NC1=N[C@H](O)[C@H]2[C@H]3O[C@]4(O)O[C@@H]([C@@H](O)[C@@]2(N1)[C@@H]4O)[C@]3(O)CO [tetrodotoxin]
effect on amplitude and frequency of contractions [4]: immediate and sustained increase

HOE-140
effect on bradykinin-induced inhibition of spontaneous contractions ([4]; 100 nM bradykinin, pre-incubation with 100 nM HOE-140 for 5 min): abolished
effect on the inhibition of colonic motility by trypsin and AP ([4]; HOE-140): had no effect

RPPGFSPFR [bradykinin]
effect on spontaneous contractions ([4]; 100 nM bradykinin): marked inhibition of spontaneous contractions

SLIGRL-NH2 [AP, SLIGRL-NH2]
EC50 (PAR-2; colonic myocytes): ~1 µM

substance P: used to induce degranulation of HMC-1 mast cells
Ca2+ mobilization in myocytes (PAR-2; 100 μM substance P): did not stimulate

tryptase: mast cell protease released upon degranulation
EC50 (PAR-2; colonic myocytes): ~0.1 µM
fold less potent than trypsin (Ca2+ mobilization) (PAR-2; colonic myocytes, tryptase vs trypsin): 100 fold
effect on amplitude of spontaneous contractions ([4]; tryptase at concentrations of up to 90 nM): did not alter the amplitude of spontaneous contractions

B1: SBTI: SBTI, pre-incubated with trypsin before assay; abbreviation not expanded (protein, UniProt P01070 25-205, looked up)
Trypsin inhibitor A: DFVLDNEGNPLENGGTYYILSDITAFGGIRAAPTGNERCPLTVVQSRNELDKGIGTIISSPYRIRFIAEGHPLSLKFDSFAVIMLCVGIPTEWSVVEDLPEGPAVKIGENKDAMDGWFRLERVSDDEFNNYKLVFCPQQAEDDKCGDIGISIDHDDGTRRLVVSKNKPLVVQFQKLDKESL
Ca2+ response to trypsin after pre-incubation with inhibitor (trypsin): no Ca^2+ response

B2: trypsin: protease that cleaves and activates PAR-2 (protein, UniProt P00760 24-246, looked up)
Serine protease 1: IVGGYTCGANTVPYQVSLNSGYHFCGGSLINSQWVVSAAHCYKSGIQVRLGEDNINVVEGNEQFISASKSIVHPSYNSNTLNNDIMLIKLKSAASLNSRVASISLPTSCASAGTQCLISGWGNTKSSGTSYPDVLKCLKAPILSDSSCKSAYPGQITSNMFCAGYLEGGKDSCQGDSGGPVVCSGKLQGIVSWGSGCAQKNKPGVYTKVCNYVSWIKQTIASN
fold more potent than AP (Ca2+ mobilization) (PAR-2): 1,000 fold
EC50 (PAR-2; colonic myocytes): ~0.001 µM
effect on motility of tetrodotoxin-treated tissues [4]: inhibited this elevated motility
fold more potent than AP (colonic motility) [4]: 10 fold
time to recovery of spontaneous activity after washing ([4]; 1 μM trypsin for 5 min, then washed extensively): > 6 h
inhibition of mean amplitude at highest concentration ([4]; 3 μM trypsin): 60%
threshold for inhibition of mean amplitude of spontaneous contractions ([4]; colon strips (mucosa plus muscle)): 300 nM
effect on spontaneous contractions in the absence of the mucosa ([4]; colonic strips with mucosa removed): inhibited spontaneous contractions
EC50 ([4]; read-out: EC50, reduction in mean amplitude of spontaneous contractions, colon strips (mucosa plus muscle)): ~0.5 µM
delay before inhibition of motility ([4]; trypsin at 1 μM, AP concentration not stated): 31 ± 5 s

Source: US5958407A, “Ileus treatment method” (The Regents of the Uinversity of California, priority 1998, dated 1999)
